Assay results from ChEMBL document CHEMBL4699401, “Argininamide-type neuropeptide Y Y1 receptor antagonists: the nature of Nomega-carbamoyl substituents determines Y1R binding mode and affinity” (RSC Med Chem, 2020).

Assays:
[1] = biological target: T1, Neuropeptide Y receptor type 1 (Homo sapiens, UniProt P25929); assay: Displacement of [3H]UR-MK299 from Y1 receptor in human SK-N-MC cells by radioligand binding assay; type: cell-based
T1 sequence (P25929 whole entry): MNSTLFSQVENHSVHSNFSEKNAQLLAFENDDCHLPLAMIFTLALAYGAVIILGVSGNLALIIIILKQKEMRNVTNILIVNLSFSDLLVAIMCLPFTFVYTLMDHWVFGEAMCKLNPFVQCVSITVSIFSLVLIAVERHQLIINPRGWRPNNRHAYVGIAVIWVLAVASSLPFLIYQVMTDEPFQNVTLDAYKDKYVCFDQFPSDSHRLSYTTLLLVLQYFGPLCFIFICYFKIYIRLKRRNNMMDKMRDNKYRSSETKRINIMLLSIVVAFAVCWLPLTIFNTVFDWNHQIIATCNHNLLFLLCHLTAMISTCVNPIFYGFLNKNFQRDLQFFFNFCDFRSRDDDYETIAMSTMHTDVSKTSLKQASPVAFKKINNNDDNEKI

[2] = biological target: T1, Neuropeptide Y receptor type 1; assay: Antagonist activity at Y1 receptor in human HEL cells assessed as reduction in pNPY-induced calcium mobilization preincubated for 15 mins followed by pNPY stimulation and measured immediately by Fura-2 dye based fluorescence assay; type: functional, cell-based
[3] = biological target: T2, Neuropeptide Y receptor type 1 (Homo sapiens) (UniProt P25929); settings: HEL, filed as antagonist, time 15.0 min
T2 sequence (whole entry): T1 sequence (P25929 whole entry)

Structure (SMILES) | Ki [1] [nM] | IC50 [2] [nM] | pKb [3]
N/C(=N/C(=O)NCCNC(=O)C1CC1)NCCC[C@@H](NC(=O)C(c1ccccc1)c1ccccc1)C(=O)NCc1ccc(O)cc1 | 1.17 | 0.24 | 10.5
N/C(=N/C(=O)NCCNC(=O)C1CCCC1)NCCC[C@@H](NC(=O)C(c1ccccc1)c1ccccc1)C(=O)NCc1ccc(O)cc1 | 52.5 | 7.59 | 9
N/C(=N/C(=O)NCCNC(=O)CCCl)NCCC[C@@H](NC(=O)C(c1ccccc1)c1ccccc1)C(=O)NCc1ccc(O)cc1 | 0.38 | 0.589 | –
CC(C)C(=O)NCCNC(=O)/N=C(/N)NCCC[C@@H](NC(=O)C(c1ccccc1)c1ccccc1)C(=O)NCc1ccc(O)cc1 | 0.309 | 0.0661 | 11.1
CCC(=O)NCCCNC(=O)/N=C(/N)NCCC[C@@H](NC(=O)C(c1ccccc1)c1ccccc1)C(=O)NCc1ccc(O)cc1 | 0.0741 | – | –
C=CC(=O)NCCNC(=O)/N=C(/N)NCCC[C@@H](NC(=O)C(c1ccccc1)c1ccccc1)C(=O)NCc1ccc(O)cc1 | 0.112 | 0.186 | 10.6
N/C(=N/C(=O)NCCNC(=O)CCl)NCCC[C@@H](NC(=O)C(c1ccccc1)c1ccccc1)C(=O)NCc1ccc(O)cc1 | 0.0525 | 0.0794 | –
CC(C)(C)C(=O)NCCNC(=O)/N=C(/N)NCCC[C@@H](NC(=O)C(c1ccccc1)c1ccccc1)C(=O)NCc1ccc(O)cc1 | 45.7 | 14.5 | 8.71
Cc1cc(/C=C/C=C/c2ccc(N(C)C)cc2)cc(C)[n+]1CCNC(=O)/N=C(/N)NCCC[C@@H](NC(=O)C(c1ccccc1)c1ccccc1)C(=O)NCc1ccc(O)cc1 | 102 | – | –
CC(=O)NCCNC(=O)/N=C(/N)NCCC[C@@H](NC(=O)C(c1ccccc1)c1ccccc1)C(=O)NCc1ccc(O)cc1 | 0.0589 | – | –
N/C(=N/C(=O)NCCNC(=O)CF)NCCC[C@@H](NC(=O)C(c1ccccc1)c1ccccc1)C(=O)NCc1ccc(O)cc1 | 0.0316 | 0.055 | –

Now from value to compound:

Ki [1] [nM] | IC50 [2] [nM] | pKb [3] | Structure (SMILES)
0.145 | 0.0912 | 10.9 | N/C(=N/C(=O)NCCNC(=O)CO)NCCC[C@@H](NC(=O)C(c1ccccc1)c1ccccc1)C(=O)NCc1ccc(O)cc1
1.1 | 0.24 | 10.5 | N/C(=N/C(=O)NCCNC(=O)C1CCC1)NCCC[C@@H](NC(=O)C(c1ccccc1)c1ccccc1)C(=O)NCc1ccc(O)cc1
295 | 525 | 7.16 | N/C(=N/C(=O)NCCNC(=O)C(c1ccccc1)c1ccccc1)NCCC[C@@H](NC(=O)C(c1ccccc1)c1ccccc1)C(=O)NCc1ccc(O)cc1
0.126 | 0.0617 | 11.1 | N/C(=N/C(=O)NCCNC(=O)CBr)NCCC[C@@H](NC(=O)C(c1ccccc1)c1ccccc1)C(=O)NCc1ccc(O)cc1
295 | 16.2 | 8.67 | N/C(=N/C(=O)NCCNC(=O)c1ccc(F)cc1)NCCC[C@@H](NC(=O)C(c1ccccc1)c1ccccc1)C(=O)NCc1ccc(O)cc1
0.0631 | – | – | CC(=O)NCCCNC(=O)/N=C(/N)NCCC[C@@H](NC(=O)C(c1ccccc1)c1ccccc1)C(=O)NCc1ccc(O)cc1
56.2 | 11.5 | 8.82 | N/C(=N/C(=O)NCCNC(=O)c1ccccc1)NCCC[C@@H](NC(=O)C(c1ccccc1)c1ccccc1)C(=O)NCc1ccc(O)cc1
380 | 30.9 | 8.39 | N/C(=N/C(=O)NCCNC(=O)C1CCCCC1)NCCC[C@@H](NC(=O)C(c1ccccc1)c1ccccc1)C(=O)NCc1ccc(O)cc1
0.0708 | 0.126 | – | N/C(=N/C(=O)NCCNC(=O)C(F)(F)F)NCCC[C@@H](NC(=O)C(c1ccccc1)c1ccccc1)C(=O)NCc1ccc(O)cc1
302 | 95.5 | 7.9 | N/C(=N/C(=O)NCCNC(=O)Cc1ccccc1)NCCC[C@@H](NC(=O)C(c1ccccc1)c1ccccc1)C(=O)NCc1ccc(O)cc1
0.0676 | 0.11 | – | N/C(=N/C(=O)NCCNC(=O)C(F)F)NCCC[C@@H](NC(=O)C(c1ccccc1)c1ccccc1)C(=O)NCc1ccc(O)cc1
